Measurements as given in patent US9346769B2, “Tetrazolones as inhibitors of fatty acid synthase” (Infinity Pharmaceuticals, Inc., priority 2010, dated 2016).

These compounds were tested against T1, human FASN (Homo sapiens, UniProt P49327) (assay: FASN Scintillation Proximity Flashplate Assay). Settings: human FASN purified from SKBR3 cells; unstarred symbols.
T1 construct: was purified from SKBR3 cells using procedures modified from those in Jayakumar et al; endogenous in cells; host or cells: SKBR3 human breast cancer cells (ATCC); Endogenous enzyme purified by ammonium sulfate precipitation and a mono Q column
T1 sequence (P49327 whole entry): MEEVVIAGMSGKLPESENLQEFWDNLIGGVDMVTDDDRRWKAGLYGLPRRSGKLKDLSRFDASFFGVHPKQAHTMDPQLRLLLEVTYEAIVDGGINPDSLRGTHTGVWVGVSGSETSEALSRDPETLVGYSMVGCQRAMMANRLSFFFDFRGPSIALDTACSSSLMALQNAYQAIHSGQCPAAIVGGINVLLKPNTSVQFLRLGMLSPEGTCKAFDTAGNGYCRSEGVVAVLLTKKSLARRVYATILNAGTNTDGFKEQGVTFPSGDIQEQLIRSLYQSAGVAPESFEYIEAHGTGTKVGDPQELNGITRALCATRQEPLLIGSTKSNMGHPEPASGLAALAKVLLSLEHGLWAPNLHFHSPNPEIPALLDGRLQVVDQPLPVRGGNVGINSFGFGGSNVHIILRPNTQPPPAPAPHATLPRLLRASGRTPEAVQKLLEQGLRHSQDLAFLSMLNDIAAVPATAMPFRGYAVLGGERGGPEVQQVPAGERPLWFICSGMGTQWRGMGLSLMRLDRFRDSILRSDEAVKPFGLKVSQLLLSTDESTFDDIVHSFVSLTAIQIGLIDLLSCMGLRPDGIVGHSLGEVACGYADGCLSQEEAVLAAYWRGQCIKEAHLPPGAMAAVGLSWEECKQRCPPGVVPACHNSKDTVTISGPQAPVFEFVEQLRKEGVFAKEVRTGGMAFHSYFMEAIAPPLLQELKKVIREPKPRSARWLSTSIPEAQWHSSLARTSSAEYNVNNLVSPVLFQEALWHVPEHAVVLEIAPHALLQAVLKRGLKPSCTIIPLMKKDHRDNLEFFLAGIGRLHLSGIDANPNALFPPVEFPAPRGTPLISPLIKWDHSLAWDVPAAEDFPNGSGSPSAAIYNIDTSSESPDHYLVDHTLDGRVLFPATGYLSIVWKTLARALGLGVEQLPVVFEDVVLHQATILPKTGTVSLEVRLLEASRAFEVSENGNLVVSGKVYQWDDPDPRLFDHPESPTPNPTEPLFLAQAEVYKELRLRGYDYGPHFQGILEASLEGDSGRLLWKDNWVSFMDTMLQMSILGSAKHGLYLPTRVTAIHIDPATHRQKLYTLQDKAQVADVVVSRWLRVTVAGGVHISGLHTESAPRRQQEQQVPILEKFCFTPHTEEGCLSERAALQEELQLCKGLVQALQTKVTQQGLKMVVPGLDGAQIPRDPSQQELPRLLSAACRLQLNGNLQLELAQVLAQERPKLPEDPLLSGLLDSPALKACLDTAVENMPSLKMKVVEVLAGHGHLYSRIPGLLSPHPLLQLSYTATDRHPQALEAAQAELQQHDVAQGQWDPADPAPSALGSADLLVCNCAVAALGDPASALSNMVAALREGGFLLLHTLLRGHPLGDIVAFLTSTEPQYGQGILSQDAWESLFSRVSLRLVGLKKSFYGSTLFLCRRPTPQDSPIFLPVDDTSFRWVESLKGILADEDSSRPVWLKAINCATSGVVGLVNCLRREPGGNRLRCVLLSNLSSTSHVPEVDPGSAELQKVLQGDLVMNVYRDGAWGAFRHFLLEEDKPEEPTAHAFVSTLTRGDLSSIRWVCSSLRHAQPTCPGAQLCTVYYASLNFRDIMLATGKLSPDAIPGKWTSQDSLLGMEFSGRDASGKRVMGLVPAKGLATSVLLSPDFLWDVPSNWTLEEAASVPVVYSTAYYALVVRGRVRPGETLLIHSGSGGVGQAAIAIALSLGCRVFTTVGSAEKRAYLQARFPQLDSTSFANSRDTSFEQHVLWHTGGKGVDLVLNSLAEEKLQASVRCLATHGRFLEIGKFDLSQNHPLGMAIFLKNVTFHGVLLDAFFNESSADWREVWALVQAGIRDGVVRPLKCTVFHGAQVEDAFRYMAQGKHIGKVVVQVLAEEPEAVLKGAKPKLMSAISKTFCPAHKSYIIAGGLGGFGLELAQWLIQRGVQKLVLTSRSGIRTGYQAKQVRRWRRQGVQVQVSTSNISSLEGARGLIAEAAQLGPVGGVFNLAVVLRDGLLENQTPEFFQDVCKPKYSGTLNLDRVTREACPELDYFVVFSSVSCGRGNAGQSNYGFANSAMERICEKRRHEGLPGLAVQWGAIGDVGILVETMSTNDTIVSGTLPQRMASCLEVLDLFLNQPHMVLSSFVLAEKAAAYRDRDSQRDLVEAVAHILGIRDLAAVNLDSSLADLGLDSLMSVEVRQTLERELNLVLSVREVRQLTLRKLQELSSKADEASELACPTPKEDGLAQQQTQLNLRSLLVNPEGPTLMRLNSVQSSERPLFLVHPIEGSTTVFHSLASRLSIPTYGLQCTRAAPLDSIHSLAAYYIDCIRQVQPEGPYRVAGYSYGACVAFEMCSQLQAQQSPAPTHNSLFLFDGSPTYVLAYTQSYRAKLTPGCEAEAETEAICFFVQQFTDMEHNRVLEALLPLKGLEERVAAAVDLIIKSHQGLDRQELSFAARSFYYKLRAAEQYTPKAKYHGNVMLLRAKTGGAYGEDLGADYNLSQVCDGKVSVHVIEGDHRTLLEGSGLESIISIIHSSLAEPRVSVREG
Type: biochemical
Experimental: Human FASN protein (SEQ ID NO. 1) was purified from SKBR3 cells using procedures modified from those in Jayakumar et al. PNAS 1995, 92:8695-8699. SKBR3 cells were obtained from ATCC and grown in DMEM high glucose medium supplemented with 10% FBS, 1 μg/mL bovine pancreas insulin, 100 U/mL penicillin and 100 µg/mL streptomycin. The confluent cells were trypsinized and washed three times with PBS buffer before frozen in liquid N2 and stored at −80° C. Frozen cells were thawed on ice and resuspended in lysis buffer (25 mM Tris-HCl, pH 7.0, 15 mM NaCl, 1 mM EDTA, and 1 mM DTT) with protease inhibitors. The cells were lysed by sonication, and the cell debris was removed by centrifugation at 20,000 rpm for 30 min. To the supernatant, neutralized saturated ammonium sulfate solution was added to a final concentration of 35%. The solution was left on ice for 1 hr, and the precipitated proteins were harvested by centrifugation at 20,000 rpm for 30 min. The proteins were redissolved in lysis buffer without NaCl and loaded on a mono Q column. Bound proteins were eluted with a linear gradient of NaCl in lysis buffer. Each fraction was analyzed by SDS-PAGE and FASN NADPH consumption assay. The fractions containing FASN were pooled and concentrated to 2-3 mg/mL. Glycerol was added to 20%, and the protein was frozen in liquid N2 and stored at −80° C.
Acetyl-coenzyme A, malonyl-coenzyme A, NADPH, bovine gamma globulin, and ORLISTAT were purchased from Sigma (St. Louis, Mo.). Tris(2-carboxyethyl) phosphine hydrochloride (TCEP) was purchased from Pierce Biotechnologies (Rockford, Ill.). [^3H]-acetyl-coenzyme A was purchased from Moravek Biochemicals (Brea, CA). FlashPlate™ PLUS phospholipid 96-well scintillant coated microplates were purchased from Perkin Elmer Life and Analytical Sciences (Shelton, CT). The method of the FASN Scintillation Proximity FlashPlate assay is similar to that described in Weiss and Glickman Assay Drug Dev Technol 2003, 1:161-6. In a 96-well polypropylene microplate, a dilution series (typical concentrations 60 nM-1.0 mM) of test compounds were prepared in DMSO followed by a 20-fold dilution into FASN assay buffer (50 mM potassium phosphate, pH 7.0, 1.0 mM EDTA, 0.01% NP-40), of which 5.0 μL each was transferred to a FlashPlate® PLUS 96-well plate and mixed with 35 μL FASN assay buffer plus 0.5 mg/mL bovine gamma globulin and 1 mM TCEP. FASN protein (10 μL, 10 nM) was added per well, and the microplate was incubated at 37° C. for 30 min. 10 μL of 20 mM NADPH was added, and the reaction was initiated by addition of […] substrate mixture to final concentrations of 1 nM FASN, 100 μM acetyl-coenzyme A, 6 μCi [^3H]-acetyl-coenzyme A, 300 μM malonyl-coenzyme A, 2 mM NADPH, 0.5 mg/mL bovine gamma globulin, and 1 mM TCEP in a volume of 100 μL per well. Assay plates were incubated for 2 hr at 37° C. and the reaction was stopped with 2 μL of 2.5 mM stock solution of ORLISTAT in DMSO to ˜50 μM. The plates were read in a Wallac 1450 Microbeta Plus liquid scintillation counter (Perkin Elmer, Waltham, Mass.), and counts per minute (CPM) were collected over 2 min. Each inhibitor well CPM was compared to the maximum FASN enzyme activity (Max) CPM and the background (Min) CPM, as measured by omission of FASN enzyme in the background well. % Inhibition values were calculated, and curves were fitted by a four-parameter logistic function to yield IC50 values:
Compounds were assayed as inhibitors of human FASN using the above-described FASN Scintillation Proximity Flashplate Assay (IC50; nM) or FASN NADPH Consumption Assay (*) (IC50; nM). The corresponding activity of the isolated compound is also provided along with the measured mass (ES^+).

Row | IC50 [nM] | SMILES
1 | < 15 | O=C(O)c1cc(N(C(=O)n2nnn(-c3c(F)cccc3F)c2=O)C2CCCCC2)ccc1OC(=O)N1CCOCC1
2 | < 15 | COc1cccc(F)c1-n1nnn(C(=O)N(c2cc(C(=O)O)ccc2Oc2ccccc2)C(C)C)c1=O
3 | < 15 | CCNC(=O)N1CCN(c2ccc(N(C(=O)n3nnn(-c4c(F)cccc4F)c3=O)C3CCCCC3)cc2C(=O)O)CC1
4 | < 15 | Cc1ccc(C)n1-c1ccc(N(C(=O)n2nnn(-c3c(F)cccc3F)c2=O)C2CCCCC2)cc1C(=O)O
5 | 100 to 200 | COc1ccc(N(C(=O)n2nnn(-c3cccc4nc[nH]c34)c2=O)C2CCCCC2)cc1C(=O)O
6 | < 15 | COc1ccc(N(C(=O)n2nnn(-c3c(F)cccc3F)c2=O)C(C)C)cc1C(=O)O
7 | < 15 | CC(C)N(C(=O)n1nnn(-c2c(F)cccc2F)c1=O)c1ccc(C(=O)O)cc1F
8 | 15 to 100 | COc1ccc(N(C(=O)n2nnn(-c3cccc(N)c3N)c2=O)C2CCCCC2)cc1C(=O)O
9 | 15 to 100 | CCN(C(=O)n1nnn(-c2c(F)cccc2OC)c1=O)c1ccccc1Oc1ccccc1
10 | < 15 | CCN(C(=O)n1nnn(-c2c(F)cccc2F)c1=O)c1ccc(NS(C)(=O)=O)cc1F
11 | 15 to 100 | COc1ccc(C(=O)O)cc1N(C(=O)n1nnn(-c2c(F)cccc2OC(C)C)c1=O)C1CCCCC1
12 | < 15 | COc1cc(Oc2ccccc2)c(N(C(=O)n2nnn(-c3c(F)cccc3F)c2=O)C2CCCCC2)cc1C(=O)O
13 | < 15 | CCC(C)N(C(=O)n1nnn(-c2c(F)cccc2OC)c1=O)c1cccc(C(=O)O)c1 (stereo not drawn)
14 | < 15 | COc1ccc(N(C(=O)n2nnn(-c3c(F)cccc3F)c2=O)C2CCCCC2)cc1C(=O)NC(C)(C)C(=O)O
15 | 200 to 5000 | COc1cccc(F)c1-n1nnn(C(=O)N(c2cccc(C(=O)O)c2)C(C)(C)C)c1=O
16 | < 15 | CC(C)N(C(=O)n1nnn(-c2c(F)cccc2F)c1=O)c1ccc(NS(C)(=O)=O)c(C(=O)O)c1
17 | < 15 | CCCCOc1ccc(C(=O)O)cc1N(CC)C(=O)n1nnn(-c2ccccc2OC)c1=O
18 | < 15 | O=C(O)c1cc(N(C(=O)n2nnn(-c3c(F)cccc3F)c2=O)C2CCCCC2)ccc1O
19 | < 15 | CCN(C(=O)n1nnn(-c2c(F)cccc2OC)c1=O)c1cc(C(=O)O)ccc1OCCc1ccccc1
20 | 100 to 200 | COc1ccc(N(C(=O)n2nnn(-c3ccccc3C#N)c2=O)C2CCCCC2)cc1C(=O)O
21 | < 15 | O=C(O)c1ccc(N(C(=O)n2nnn(-c3c(F)cccc3F)c2=O)C2CCCCC2)cc1O

Row | IC50 [nM] | SMILES
22 | < 15 | CC(C)(C)OC(=O)N1CCN(c2ccc(N(C(=O)n3nnn(-c4c(F)cccc4F)c3=O)C3CCCCC3)cc2C(=O)O)CC1
23 | < 15 | CCN(C(=O)n1nnn(-c2ccccc2OC)c1=O)c1ccc(OC)c(C(=O)OCc2ccccc2)c1
24 | < 15 | COc1ccc(N(C(=O)n2nnn(-c3c(F)cccc3C(=O)N(C)C)c2=O)C(C)C)cc1C(=O)OCc1ccccc1
25 | 15 to 100 | COc1ccc(C(=O)OCc2ccccc2)cc1N(C(=O)n1nnn(-c2c(F)cccc2OC(C)C)c1=O)C1CCCCC1
26 | 15 to 100 | CCN(C(=O)n1nnn(-c2c(Cl)cccc2Cl)c1=O)c1ccc(OC)cc1
27 | 100 to 200 | COc1cccc(F)c1-n1nnn(C(=O)N(c2ccccc2)[C@H]2CC[C@H](C(=O)O)CC2)c1=O
28 | 15 to 100 | CN(C)c1ccc2c(c1)OC(=O)CC2CC(=O)Nc1cccc2c1CCCN2C(=O)n1nnn(-c2c(F)cccc2F)c1=O (stereo not drawn)
29 | < 15 | CCN(C(=O)n1nnn(-c2c(F)cccc2OC)c1=O)c1ccccc1
30 | < 15 | COc1ccc(N(C(=O)n2nnn(-c3c(F)cccc3C(=O)N(C)Cc3ccccc3)c2=O)C(C)C)cc1C(=O)O
31 | 15 to 100 | COc1cccc(F)c1-n1nnn(C(=O)N(c2cccc(C(=O)O)c2)C(C)C)c1=O
32 | < 15 | COc1ccc(N(C(=O)n2nnn(-c3c(F)cccc3C(=O)N3CCCCC3)c2=O)C(C)C)cc1C(=O)OCc1ccccc1
33 | < 15 | Nc1ccc(N(C(=O)n2nnn(-c3c(F)cccc3F)c2=O)C2CCCCC2)cc1C(=O)O
34 | < 15 | CCN(C(=O)n1nnn(-c2c(Cl)cccc2Cl)c1=O)c1ccc(C(=O)O)cc1
35 | < 15 | CN(C)c1ccc(N(C(=O)n2nnn(-c3c(F)cccc3F)c2=O)C2CCCCC2)cc1C(=O)O
36 | < 15 | CCN(C(=O)n1nnn(-c2c(F)cccc2F)c1=O)c1ccc(F)cc1F
37 | < 15 | CCN(C(=O)n1nnn(-c2c(F)cccc2F)c1=O)c1cc(C(=O)O)ccc1OCCc1ccccc1
38 | < 15 | O=C(O)c1ccc(F)c(N(C(=O)n2nnn(-c3c(F)cccc3F)c2=O)C2CCCC2)c1
39 | < 15 | COc1ccc(N(C(=O)n2nnn(-c3c(F)cccc3C(=O)N(C)Cc3ccccc3)c2=O)C(C)C)cc1C(=O)OCc1ccccc1
40 | 15 to 100 | CN(C)N(C(=O)n1nnn(-c2ccccc2Cl)c1=O)C1=CCCC1
41 | < 15 | COc1ccc(C(=O)OCc2ccccc2)cc1N(CCCc1ccccc1)C(=O)n1nnn(-c2c(F)cccc2F)c1=O
42 | 15 to 100 | COc1ccc(N(C(=O)n2nnn(-c3c(F)cccc3C(=O)O)c2=O)C(C)C)cc1C(=O)OCc1ccccc1

Row | IC50 [nM] | SMILES
43 | 15 to 100 | COc1ccc(N(C(=O)n2nnn(-c3c(F)cccc3C(=O)N(C)c3ccccc3)c2=O)C(C)C)cc1C(=O)O
44 | 200 to 5000 | COc1cccc(F)c1-n1nnn(C(=O)N(CC(C)(C)C)c2cccc(C(=O)O)c2)c1=O
45 | < 15 | COc1ccc(N(C(=O)n2nnn(-c3c(F)cccc3F)c2=O)C2CCCCC2)cc1C(N)=O
46 | 200 to 5000 | COc1ccc(N(C(=O)n2nnn(-c3ccccc3OC)c2=O)C(C)C)cc1C(=O)O
47 | < 15 | COc1cc(N(C(=O)n2nnn(-c3c(F)cccc3F)c2=O)C2CCCCC2)ccc1C(=O)O
48 | < 15 | O=C(O)COc1ccc(N(C(=O)n2nnn(-c3c(F)cccc3F)c2=O)C2CCCCC2)cc1
49 | < 15 | COc1ccc(N(C(=O)n2nnn(-c3c(F)cccc3OC(C)C)c2=O)C2CCCCC2)cc1C(=O)O
50 | < 15 | COc1ccc(N(C(=O)n2nnn(-c3c(F)cccc3F)c2=O)C(C)C)cc1C(=O)OCc1ccccc1
51 | 15 to 100 | CCC(CC)N(C(=O)n1nnn(-c2c(F)cccc2F)c1=O)c1cccc(C(=O)O)c1
52 | 100 to 200 | CCN(C(=O)n1nnn(-c2ccccc2OC)c1=O)c1ccc(OC)cc1
53 | < 15 | COc1ccc(COC(=O)c2cc(N(C(=O)n3nnn(-c4cccc5nsnc45)c3=O)C3CCCCC3)ccc2OC)cc1
54 | < 15 | CCN(C(=O)n1nnn(-c2c(F)cccc2OC)c1=O)c1cccc(Oc2cccc(C(=O)O)c2)c1
55 | < 15 | CC(C)N(C(=O)n1nnn(-c2c(F)cccc2F)c1=O)c1ccc(C(=O)OCc2ccccc2)cc1Oc1ccccc1
56 | < 15 | O=C(O)c1ccc(N(C(=O)n2nnn(-c3c(F)cccc3F)c2=O)C2CCCC2)c(Oc2ccccc2)c1
57 | < 15 | O=C(O)c1cc(N(C(=O)n2nnn(-c3c(F)cccc3F)c2=O)C2CCCCC2)cc2c1OCC2
58 | < 15 | CCC(CC)N(C(=O)n1nnn(-c2c(F)cccc2F)c1=O)c1cccc(C(=O)OCc2ccccc2)c1
59 | 15 to 100 | COc1ccc(N(C(=O)n2nnn(-c3c(F)cccc3C(=O)N3CCCCC3)c2=O)C(C)C)cc1C(=O)O
60 | 15 to 100 | CCN(C(=O)n1nnn(-c2c(F)cccc2OC)c1=O)c1cc(Oc2ccc(C(=O)O)cc2)ccc1C
61 | < 15 | COc1cccc(F)c1-n1nnn(C(=O)N(c2ccccc2)C2CCCC2)c1=O
62 | 200 to 5000 | CCN(C(=O)n1nnn(-c2ccccc2Cl)c1=O)C1CCCC1
63 | < 15 | CC(C)N(C(=O)n1nnn(-c2c(F)cccc2F)c1=O)c1ccc(NC(=O)OC(C)(C)C)c(C(=O)OCc2ccccc2)c1
